Like-named read-outs stand apart in the source and are kept apart here.
Assays:
[1] = molecular target: T1, Hsp90 in C. albicans (SC5314) lysate (Candida albicans, UniProt P46598); assay: biochemical; assay type: binding; conditions: for Ratio re. GdA: EC50 relative to GdA; for Ratio re. GdA / FP signal (raw) / FP signal relative to 0 nM / FP signal / EC50: SC5314 lysate; for FP signal: raw; for EC50: not normalized, oxime panel experiment 220817, read-out: EC50
T1 construct: endogenous in cells; host or cells: C. albicans SC5314 whole-cell lysate

Hsp90 in HEPG2 lysate = conditions: for FP signal (raw) / FP signal / EC50: HepG2 lysate; for FP signal: raw; for EC50: oxime panel experiment 220817
[2] = ratio of GdA-normalized EC50s, human over fungal lysate
[3] = ratio of GdA-relative EC50 ratios, HepG2 over SC5314
[4] = EC50 / EC50 of GdA in HepG2 lysate
[5] = EC50 relative to GdA, HEPG2 lysate
[6] = HEPG2 lysate, log concentration 0.137354 (1.372 nM)
[7] = HEPG2 lysate, log concentration 0.61437 (4.115 nM)
[8] = HEPG2 lysate, log concentration 1.09153 (12.346 nM)
[9] = HEPG2 lysate, log concentration 1.56864 (37.037 nM)
[10] = HEPG2 lysate, log concentration 2.04576 (111.111 nM)
[11] = HEPG2 lysate, log concentration 2.52288 (333.333 nM)
[12] = HEPG2 lysate, log concentration 3 (1000 nM)
[13] = HEPG2 lysate, log concentration 3.47712 (3000 nM)
[14] = HEPG2 lysate, log concentration -0.340084 (0.457 nM)

T1 sequence (P46598 whole entry): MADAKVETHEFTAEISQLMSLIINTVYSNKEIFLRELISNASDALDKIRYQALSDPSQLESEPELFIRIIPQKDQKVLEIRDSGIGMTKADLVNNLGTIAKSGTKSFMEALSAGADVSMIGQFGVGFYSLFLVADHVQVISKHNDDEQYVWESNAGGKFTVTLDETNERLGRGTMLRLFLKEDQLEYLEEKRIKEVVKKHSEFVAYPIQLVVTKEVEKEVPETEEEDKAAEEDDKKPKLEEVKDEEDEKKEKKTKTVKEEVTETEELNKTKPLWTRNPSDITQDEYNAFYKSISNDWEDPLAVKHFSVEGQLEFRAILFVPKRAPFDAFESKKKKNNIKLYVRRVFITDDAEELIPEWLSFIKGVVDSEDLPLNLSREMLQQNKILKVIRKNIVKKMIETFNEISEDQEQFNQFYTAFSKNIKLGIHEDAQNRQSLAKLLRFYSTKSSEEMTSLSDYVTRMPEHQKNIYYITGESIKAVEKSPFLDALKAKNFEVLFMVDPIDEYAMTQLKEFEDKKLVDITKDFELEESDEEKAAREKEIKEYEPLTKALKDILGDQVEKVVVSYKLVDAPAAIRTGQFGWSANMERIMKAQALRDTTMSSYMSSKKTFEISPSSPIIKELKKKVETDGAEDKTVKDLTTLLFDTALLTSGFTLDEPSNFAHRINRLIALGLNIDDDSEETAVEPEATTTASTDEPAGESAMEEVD

## CC1CC2OC2C=CC=CC(=NOCc2ccccc2)Cc2c(Cl)c(O)cc(O)c2C(=O)O1 (mixture of isomers) [compound 217]
[1]
  Ratio re. GdA: 23.0159
  EC50: 392 nM
[1]; 0.457 nM
  FP signal (raw): 197
[1]; 0.457 nM compound
  FP signal relative to 0 nM: 0.9426
  FP signal: 197
[1]; 1.372 nM
  FP signal (raw): 194
[1]; 1.372 nM compound
  FP signal relative to 0 nM: 0.9282
  FP signal: 194
[1]; 4.115 nM
  FP signal (raw): 198
[1]; 4.115 nM compound
  FP signal relative to 0 nM: 0.9474
  FP signal: 198
[1]; 12.346 nM
  FP signal (raw): 197
[1]; 12.346 nM compound
  FP signal relative to 0 nM: 0.9426
  FP signal: 197
[1]; 37.037 nM
  FP signal (raw): 192
[1]; 37.037 nM compound
  FP signal relative to 0 nM: 0.9187
  FP signal: 192
[1]; 111.111 nM
  FP signal (raw): 183
[1]; 111.111 nM compound
  FP signal relative to 0 nM: 0.8756
  FP signal: 183
[1]; 333.333 nM
  FP signal (raw): 134
[1]; 333.333 nM compound
  FP signal relative to 0 nM: 0.6411
  FP signal: 134
[1]; 1000 nM
  FP signal (raw): 42
[1]; 1000 nM compound
  FP signal relative to 0 nM: 0.201
  FP signal: 42
[1]; 3000 nM
  FP signal (raw): 38
[1]; 3000 nM compound
  FP signal relative to 0 nM: 0.1818
  FP signal: 38
[1]; [2]
  HepG2/SC5314: 0.6913
[1]; [3]
  HepG2/SC5314: 0.6913
Hsp90 in HEPG2 lysate; [4]
  Ratio rel. GdA (HepG2): 15.9107
Hsp90 in HEPG2 lysate; [5]
  Ratio rel. GdA (HepG2): 15.9107
Hsp90 in HEPG2 lysate; [6]
  FP signal, Fxn Control: 0.9806
Hsp90 in HEPG2 lysate; [7]
  FP signal, Fxn Control: 0.9951
Hsp90 in HEPG2 lysate; [8]
  FP signal, Fxn Control: 0.9951
Hsp90 in HEPG2 lysate; [9]
  FP signal, Fxn Control: 0.9612
Hsp90 in HEPG2 lysate; [10]
  FP signal, Fxn Control: 0.8592
Hsp90 in HEPG2 lysate; [11]
  FP signal, Fxn Control: 0.6117
Hsp90 in HEPG2 lysate; [12]
  FP signal, Fxn Control: 0.2524
Hsp90 in HEPG2 lysate; [13]
  FP signal, Fxn Control: 0.1893
Hsp90 in HEPG2 lysate; [14]
  FP signal, Fxn Control: 1.005
Hsp90 in HEPG2 lysate; 0.457 nM
  FP signal (raw): 207
Hsp90 in HEPG2 lysate; 0.457 nM compound
  FP signal: 207
Hsp90 in HEPG2 lysate; 1.372 nM
  FP signal (raw): 202
Hsp90 in HEPG2 lysate; 1.372 nM compound
  FP signal: 202
Hsp90 in HEPG2 lysate; 4.115 nM
  FP signal (raw): 205
Hsp90 in HEPG2 lysate; 4.115 nM compound
  FP signal: 205
Hsp90 in HEPG2 lysate; 12.346 nM
  FP signal (raw): 205
Hsp90 in HEPG2 lysate; 12.346 nM compound
  FP signal: 205
Hsp90 in HEPG2 lysate; 37.037 nM
  FP signal (raw): 198
Hsp90 in HEPG2 lysate; 37.037 nM compound
  FP signal: 198
Hsp90 in HEPG2 lysate; 111.111 nM
  FP signal (raw): 177
Hsp90 in HEPG2 lysate; 111.111 nM compound
  FP signal: 177
Hsp90 in HEPG2 lysate; 333.333 nM
  FP signal (raw): 126
Hsp90 in HEPG2 lysate; 333.333 nM compound
  FP signal: 126
Hsp90 in HEPG2 lysate; 1000 nM
  FP signal (raw): 52
Hsp90 in HEPG2 lysate; 1000 nM compound
  FP signal: 52
Hsp90 in HEPG2 lysate; 3000 nM
  FP signal (raw): 39
Hsp90 in HEPG2 lysate; 3000 nM compound
  FP signal: 39
Hsp90 in HEPG2 lysate
  EC50: 353 nM

## CCON=C1/C=C/C=C\[C@H]2O[C@H]2C[C@@H](C)OC(=O)c2c(O)cc(O)c(Cl)c2C1 [compound 333]
[1]
  Ratio re. GdA: 0.3152
  EC50: 5.36 nM
[1]; 0.457 nM
  FP signal (raw): 168
[1]; 0.457 nM compound
  FP signal relative to 0 nM: 0.8317
  FP signal: 168
[1]; 1.372 nM
  FP signal (raw): 155
[1]; 1.372 nM compound
  FP signal relative to 0 nM: 0.7673
  FP signal: 155
[1]; 4.115 nM
  FP signal (raw): 114
[1]; 4.115 nM compound
  FP signal relative to 0 nM: 0.5644
  FP signal: 114
[1]; 12.346 nM
  FP signal (raw): 81
[1]; 12.346 nM compound
  FP signal relative to 0 nM: 0.401
  FP signal: 81
[1]; 37.037 nM
  FP signal (raw): 58
[1]; 37.037 nM compound
  FP signal relative to 0 nM: 0.2871
  FP signal: 58
[1]; 111.111 nM
  FP signal (raw): 39
[1]; 111.111 nM compound
  FP signal relative to 0 nM: 0.1931
  FP signal: 39
[1]; 333.333 nM
  FP signal (raw): 35
[1]; 333.333 nM compound
  FP signal relative to 0 nM: 0.1733
  FP signal: 35
[1]; 1000 nM
  FP signal (raw): 36
[1]; 1000 nM compound
  FP signal relative to 0 nM: 0.1782
  FP signal: 36
[1]; 3000 nM
  FP signal (raw): 35
[1]; 3000 nM compound
  FP signal relative to 0 nM: 0.1733
  FP signal: 35
[1]; [2]
  HepG2/SC5314: 1.134
[1]; [3]
  HepG2/SC5314: 1.134
Hsp90 in HEPG2 lysate; [4]
  Ratio rel. GdA (HepG2): 0.3573
Hsp90 in HEPG2 lysate; [5]
  Ratio rel. GdA (HepG2): 0.3573
Hsp90 in HEPG2 lysate; [6]
  FP signal, Fxn Control: 0.9198
Hsp90 in HEPG2 lysate; [7]
  FP signal, Fxn Control: 0.7075
Hsp90 in HEPG2 lysate; [8]
  FP signal, Fxn Control: 0.5047
Hsp90 in HEPG2 lysate; [9]
  FP signal, Fxn Control: 0.3066
Hsp90 in HEPG2 lysate; [10]
  FP signal, Fxn Control: 0.2075
Hsp90 in HEPG2 lysate; [11]
  FP signal, Fxn Control: 0.1651
Hsp90 in HEPG2 lysate; [12]
  FP signal, Fxn Control: 0.184
Hsp90 in HEPG2 lysate; [13]
  FP signal, Fxn Control: 0.2028
Hsp90 in HEPG2 lysate; [14]
  FP signal, Fxn Control: 0.9575
Hsp90 in HEPG2 lysate; 0.457 nM
  FP signal (raw): 203
Hsp90 in HEPG2 lysate; 0.457 nM compound
  FP signal: 203
Hsp90 in HEPG2 lysate; 1.372 nM
  FP signal (raw): 195
Hsp90 in HEPG2 lysate; 1.372 nM compound
  FP signal: 195
Hsp90 in HEPG2 lysate; 4.115 nM
  FP signal (raw): 150
Hsp90 in HEPG2 lysate; 4.115 nM compound
  FP signal: 150
Hsp90 in HEPG2 lysate; 12.346 nM
  FP signal (raw): 107
Hsp90 in HEPG2 lysate; 12.346 nM compound
  FP signal: 107
Hsp90 in HEPG2 lysate; 37.037 nM
  FP signal (raw): 65
Hsp90 in HEPG2 lysate; 37.037 nM compound
  FP signal: 65
Hsp90 in HEPG2 lysate; 111.111 nM
  FP signal (raw): 44
Hsp90 in HEPG2 lysate; 111.111 nM compound
  FP signal: 44
Hsp90 in HEPG2 lysate; 333.333 nM
  FP signal (raw): 35
Hsp90 in HEPG2 lysate; 333.333 nM compound
  FP signal: 35
Hsp90 in HEPG2 lysate; 1000 nM
  FP signal (raw): 39
Hsp90 in HEPG2 lysate; 1000 nM compound
  FP signal: 39
Hsp90 in HEPG2 lysate; 3000 nM
  FP signal (raw): 43
Hsp90 in HEPG2 lysate; 3000 nM compound
  FP signal: 43
Hsp90 in HEPG2 lysate
  EC50: 7.93 nM

Source: PMC6345968, “Structural basis for species-selective targeting of Hsp90 in a pathogenic fungus” (Nature Communications, 2019)
